Here are results for one compound from patent publication US12459917B2, “Salt of diaminopyrimidine compounds, and solid form thereof, preparation method therefor and use thereof” (BEIJING TIDE PHARMACEUTICAL CO., LTD., priority 2019, dated 2025).

The data set is described as follows: Solubility test in FaSSIF at 37° C. The class given is physicochemical. Particulars: FaSSIF (Fasted State Simulated Intestinal Fluid), thermodynamic from solid. The source says: Experimental Example 3: Solubility Test

SMILES strings stand for the structures. In brackets after ≈: the same amount, converted by molar mass.

Broadly, the solubility is the concentration that dissolves in the medium under given conditions. High values mean a readily soluble substance, low ones a poorly soluble substance. `C#Cc1cc(Oc2cnc(N)nc2N)c(C(C)C)cn1` [Free base, 5-((2-ethynyl-5-isopropylpyridin-4-yl)oxy)pyrimidine-2,4-diamine] showed a solubility at 30 min (30 min) of 80 µg/mL (≈ 297 µM). The solubility at 2 h (2 h) was 80 µg/mL (≈ 297 µM). Under “24 h”, this compound had a solubility at 24 h of 110 µg/mL (≈ 408 µM).
